Measured values taken from US6800635B2, “Crystalline form II of cabergoline” (Pharmacia Italia, S.p.A., priority 2000, dated 2004).

Experiment: Relative thermodynamic stability of cabergoline polymorphs (slurry of a mixture of forms I and II)
Type: physicochemical
Settings: range of temperature between −70 and +30° C.; compared with Form I
Protocol: It can be readily prepared starting from crude material by crystallization from several solvents at low temperatures. Alternatively it can be prepared by slurry of a mixture of forms I and II in a solvent at a temperature below 30° C. The importance of cabergoline form II rests primarily (but not exclusively) in its thermodynamic stability.
Crystalline Form II cabergoline may be also prepared by subjecting a mixture of crystal forms I and II of cabergoline to a slurry procedure at a temperature below 30° C. Preferably, the mixture is stirred at room temperature in organic aliphatic linear C4-7 alkanes or C4-C5 ethers such as n-hexane or diethyl ether. In the mixture, the Form I/Form II ratio is preferably from 10:1 to 1:10. The resultant crystals were collected as above described.
A mixture of 200 mg of form I and of an equal amount of form II was added to 50 ml of n-hexane at 25° C. The suspension was stirred for about 12 hours, then filtered using a glass filter under vacuum. The collected crystals were identified by analytical methods as pure form II. The analytical data were the same of example 1.
A mixture of 50 mg of form I and of 350 mg of form II was added to 5 ml of diethyl ether at −5° C. The suspension was stirred for about 12 hours, then filtered using a glass filter under vacuum. The collected crystals were identified by analytical methods as pure form II. […]

## C=CCN1C[C@H](C(=O)N(CCCN(C)C)C(=O)NCC)C[C@@H]2c3cccc4[nH]cc(c34)C[C@H]21 [Form II, 1((6-allylergolin-8Beta-yl)-carbonyl)-1-(3-dimethylaminopropyl)-3-ethylurea]
  thermodynamic stability of the polymorph: thermodynamically most stable polymorph
